Test results reported in article PMC7114283 (Antiviral Research, 2010).
Read-outs that look alike come from different tables or passages of the source. Marks after values point to notes of the source that are not given here.

How the values were obtained:
TGEV [1] = tested on: TGEV
in vitro = conditions: swine
TGEV [2] = assay: microbe, parasite or virus in culture; conditions: Alphacoronavirus 1
SARS CoV 3CLpro = SARS CoV 3CLpro (Severe acute respiratory syndrome coronavirus, UniProt P0C6X7); format: biochemical
in vivo = conditions: male, Sprague-Dawley, rat, 3 mg/kg
SARS CoV Urbani strain [3] = tested on: SARS CoV Urbani strain
TGEV 3CLpro = TGEV 3CLpro (Porcine transmissible gastroenteritis coronavirus, UniProt P0C6Y5); format: biochemical, transmissible gastroenteritis virus
[4] = male, Sprague-Dawley, rat, in vivo, 3 mg/kg
SARS CoV Urbani strain [5] = format: cell-based, human severe acute respiratory syndrome coronavirus
Vero 76 cells [6] = tested on: Vero 76 cells
Vero 76 cells [7] = tested on: Vero 76 cells; remark: listed apart in the source

TGEV 3CLpro, sequence (P0C6Y5 2879-3180 limits assumed): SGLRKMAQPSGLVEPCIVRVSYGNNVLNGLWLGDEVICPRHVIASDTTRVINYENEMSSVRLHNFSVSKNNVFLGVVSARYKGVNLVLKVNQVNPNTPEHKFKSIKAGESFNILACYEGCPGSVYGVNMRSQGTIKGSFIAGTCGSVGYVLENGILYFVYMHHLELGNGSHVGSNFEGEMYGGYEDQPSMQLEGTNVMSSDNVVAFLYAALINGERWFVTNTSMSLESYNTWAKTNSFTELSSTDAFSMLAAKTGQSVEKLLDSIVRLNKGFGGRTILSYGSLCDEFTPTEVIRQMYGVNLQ

Compound: COc1cc2c3c(c4cc(OC)c(OC)cc4c2cc1OC)CN1CCC[C@@H]1C3 [1a′, tylophorine]
- CC50 (ST cells; swine): > 100000 nM
- EC50 (TGEV [1]): 95 ± 17 nM
- SI (CC50/EC50) (TGEV [1]): >1053

Compound: COc1ccc2c3c(c4cc(OC)c(OC)cc4c2c1)CN1CCC[C@H]1[C@@H]3O [Compound 1e, tylophorinine]
- CC50 (in vitro): > 100000 nM
- EC50 (TGEV [2]): 82 ± 8 nM
- SI (CC50/EC50) (TGEV [1]): >1220

Compound: COc1cc2c3c(c4cc(OC)c(OC)cc4c2cc1OC)CN1CCC[C@@H]1C3 [Compound 1a, Tylophorine]
- Inhibition of SARS CoV 3CLpro enzymatic activity (SARS CoV 3CLpro): did not significantly inhibit
- CC50 (in vitro): > 100000 nM
- bioavailability (in vivo): 65.7%
- AUC(0-inf) (in vivo; iv): 772 ng·h/mL
- clearance (in vivo; iv): 66.8 mL/min/kg
- AUC(0-inf) (in vivo; po): 507 ng·h/mL
- Cmax (in vivo; po): 31.9 ng/mL
- Tmax (in vivo; po): 1.8 h
- EC50 (TGEV [2]): 58 ± 4 nM
- Visual assay SI (CC50/EC50) (SARS CoV Urbani strain [3]): 88
- SI (CC50/EC50) (TGEV [1]): >1715
- Inhibition of TGEV 3CLpro enzymatic activity (TGEV 3CLpro): did not significantly inhibit
- Ctrough ([4]; iv): 1.1 ng/mL
- t1/2 (apparent elimination half-life) ([4]; iv): 3.9 ^b h
- Ctrough ([4]; po): 3.0 ng/mL

Compound: 3,14a-dihydroxy-6,7-dimethoxyphenanthroindolizidine [Compound 1h]
- CC50 (ST cells): 31600 nM
- EC50 (TGEV [1]): 18 ± 1 nM
- SI (CC50/EC50) (TGEV [1]): 1719

Compound: interferon alfacon-1 [Infergen™]
- Neutral red uptake assay EC50 (SARS CoV Urbani strain [5]): 2.4 µg/mL
- Neutral red uptake assay CC50 (Vero 76 cells [6]): >130 µg/mL
- Visual assay CC50 (Vero 76 cells [7]): >100 µg/mL
- Visual assay EC50 (SARS CoV Urbani strain [3]): <0.32 µg/mL
- Visual assay SI (CC50/EC50) (SARS CoV Urbani strain [3]): >320
